Experimental data as given in US8633245B2, “PAI-1 inhibitor” (Institute of Medicinal Molecular Design, Inc., priority 2008, dated 2014).

Target: T1, recombinant human PAI-1 (Homo sapiens, UniProt P05121)
T1 construct: purchased Molecular Innovations, Inc
Assay: Test Example 1: human PAI-1 inhibitory activity (tPA fluorogenic substrate, pH 7.5 Tris buffer)
Format: biochemical
Settings: Tris buffer
Experimental: 50 mM Tris, 150 mM NaCl, 10 μg/ml BSA, 0.01% Tween80 (SIGMA-ALDRICH Corporation)

T1 sequence (P05121 24-402): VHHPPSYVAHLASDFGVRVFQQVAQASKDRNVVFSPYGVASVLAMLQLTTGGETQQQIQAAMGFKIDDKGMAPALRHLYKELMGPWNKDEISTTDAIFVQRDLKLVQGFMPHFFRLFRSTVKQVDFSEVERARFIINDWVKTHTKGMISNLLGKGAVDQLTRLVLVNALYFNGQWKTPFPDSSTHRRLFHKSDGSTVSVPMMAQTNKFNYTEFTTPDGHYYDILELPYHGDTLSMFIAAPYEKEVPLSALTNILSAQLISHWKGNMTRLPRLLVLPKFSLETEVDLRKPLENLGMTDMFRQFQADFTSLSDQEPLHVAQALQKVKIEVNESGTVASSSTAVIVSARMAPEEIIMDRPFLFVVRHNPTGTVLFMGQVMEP

| Inhibition Rate of PAI-1 Activity (%) (Compound Concentration 5 μM) | Inhibition Rate of PAI-1 Activity (%) (Compound Concentration 10 μM) | Inhibition Rate of PAI-1 Activity (%) (Compound Concentration 25 μM) | Compound |
| --- | --- | --- | --- |
| 35% | 80% | 90% | CC(C)(C)c1ccc(CN(C(=O)C(=O)O)c2ccc(-c3ccc(OC(F)(F)F)cc3)cc2OC(F)(F)F)cc1 [Compound 151] |
| 75% | 92% |  | CCC(CC)Oc1ccc(N(CCCc2ccccc2)C(=O)C(=O)O)c(-c2ccc(OC(F)(F)F)cc2)c1 [Compound 237] |
| 24% | 53% | 99% | CC(C)(C)c1ccc(COc2ccc(-c3ccc(F)cc3)cc2CCC(=O)O)cc1 [Compound 34] |
| 29% | 63% | 99% | CC(C)(C)c1ccc(COc2ccc(-c3ccc(OC(F)(F)F)cc3)cc2OCc2nnn[nH]2)cc1 [Compound 122] |
| 28% | 63% | 70% | COc1cc(-c2ccc(OC(F)(F)F)cc2)cc(/C=C/C(=O)O)c1OCc1ccc(C(C)(C)C)cc1 [Compound 81] |
| 30% | 67% | 96% | CC(C)(C)c1ccc(COc2c(Cl)cc(-c3ccc(OC(F)(F)F)cc3)cc2C=CC(=O)O)cc1 [Compound 91] |
| 49% | 83% | 96% | CC(C)(C)c1ccc(CN(C(=O)C(=O)O)c2ccc(OCc3ccc(OC(F)(F)F)cc3)cc2)cc1 [Compound 616] |
| 37% | 84% | >99% | CC(C)(C)c1ccc(CN(C(=O)C(=O)O)c2ccc(-c3ccc(C(C)(C)C)cc3)cc2)cc1 [Compound 163] |
| 23% | 47% | 84% | COc1ccc(-c2ccc(OCc3ccc(C(C)(C)C)cc3)c(/C=C/C(=O)O)c2)cc1 [Compound 37] |
|  | 11% | 70% | O=C(O)CCc1cc(-c2ccc(OC(F)(F)F)cc2)ccc1OCc1ccccc1C(F)(F)F [Compound 21] |
| 10% | 25% | 67% | CC(C)(C)c1ccc(-c2ccc(N(Cc3ccccc3)C(=O)C(=O)O)cc2)cc1 [Compound 156] |
| 38% | 69% | >99% | CC(C)(C)c1ccc(CN(C(=O)CCC(=O)O)c2ccc(-c3ccc(OC(F)(F)F)cc3)cc2)cc1 [Compound 609] |
| 28% | 64% | 94% | CC(C)(C)c1ccc(-c2ccc(OCc3ccc(OC(F)(F)F)cc3)c(CCC(=O)O)c2)cc1 [Compound 52] |
| 22% | 49% |  | O=C(O)C(=O)N(Cc1ccc(Cl)cc1)c1ccc(-c2ccc(OC(F)(F)F)cc2)cc1 [Compound 124] |
| 62% | 92% | 88% | CC(C)(C)c1ccc(CN(C(=O)C(=O)O)c2ccc(Cl)c(OCc3ccc(OC(F)(F)F)cc3)c2)cc1 [Compound 629] |
| 77% | 93% | >99% | CC(C)(C)c1ccc(-c2ccc(Oc3ccc(-c4ccc(OC(F)(F)F)cc4)cc3CCC(=O)O)c(CCC(=O)O)c2)cc1 [Compound 541] |
| 27% | 62% | >99% | O=C(O)C(=O)N(Cc1ccc(-c2ccccc2)cc1)c1ccc(-c2ccc(OC(F)(F)F)cc2)cc1 [Compound 161] |
| 93% | 97% |  | CCCCCCOc1ccc(-c2ccc(OC(F)(F)F)cc2)cc1N(CCCCc1ccccc1)C(=O)C(=O)O [Compound 245] |
| 13% | 53% | 96% | CC(C)c1ccc(Oc2ccc(/C=C\C(=O)O)c(Oc3ccc(C(C)C)cc3)c2)cc1 [Compound 74] |
| 84% | 78% |  | CC(C)(C)c1ccc(COc2ccc(-c3ccc(OC(F)(F)F)cc3)cc2C=CC(=O)O)cc1 [Compound 4] |
| 22% | 53% | 97% | O=C(O)CCc1cc(-c2ccc(OC(F)(F)F)cc2)ccc1OCc1cccc(C(F)(F)F)c1 [Compound 58] |
|  | 3% | 34% | CC(C)(C)c1ccc(CN(C(=O)C(=O)O)c2ccc(-c3ccc(C#N)cc3)cc2)cc1 [Compound 149] |
| 58% | 86% | 86% | CC(C)(C)c1ccc(CN(C(=O)C(=O)O)c2ccccc2Sc2ccc(OC(F)(F)F)cc2)cc1 [Compound 631] |
| 75% | 93% | 99% | CC(C)(C)c1ccc(Oc2cc(-c3ccc(OC(F)(F)F)cc3)ccc2OC(F)C(=O)O)cc1 (centres unmarked) [Compound 119] |
| 37% | 71% | 98% | CC(C)(C)c1ccc(COc2cc(CCC(=O)O)cc(Oc3ccc(OC(F)(F)F)cc3)c2)cc1 [Compound 410] |
| 47% | 77% | 96% | O=C(O)CCc1cc(-c2ccc(OC(F)(F)F)cc2)ccc1OCCCCCc1ccccc1 [Compound 104] |
| 92% | 94% |  | CC(C)(C)c1ccc(Oc2ccc(-c3ccc(OC(F)(F)F)cc3)cc2C=CC(=O)O)cc1 [Compound 12] |
| 49% | 74% | 95% | CC(C)(C)c1ccc(COc2ccc(-c3cccc(OC(F)(F)F)c3)cc2CCC(=O)O)cc1 [Compound 64] |
